This is an account of results in patent US11998008B2, “Pesticides and methods of controlling pests” (The State of Israel, Ministry of Agriculture & Rural …, priority 2017, dated 2024).

One series deals with S. rolfsii. As to the kind of experiment: Fungicidal activity assay on PDA in sealed Petri dish (growth inhibition and mortality). The class given is cell-based, Sclerotinia rolfsii. As to conditions: Agroathelia rolfsii; S. rolfsii; NA + number = still viable in the highest concentration tested (given as >); read-out: M - Mortality, minimal concentration that killed the fungus.

The test system of series [1] is F. oxysporum f. sp. radicis-cucumerium. The series is described as above. The class given is cell-based, Fusarium oxysporum f. sp. radicis-cucumerinum. As to conditions: Fusarium oxysporum, NA + number = still viable in the highest concentration tested (given as >), read-out: M - Mortality, minimal concentration that killed the fungus.
The subject of a further series is R. solani. As to the kind of experiment: microbe, parasite or virus in culture. The class given is cell-based. As to conditions: Rhizoctonia solani, read-out: M - Mortality, minimal concentration that killed the fungus.
The subject of another series is test fungi. As to the kind of experiment: Fungicidal activity assay on PDA, summaries over the test fungi. The format is cell-based. To be noted: comparison within the series. As for the experimental part:
In exemplary procedures, the fungicidial activity of the compounds listed in Table 2 were examined by activity assays as follow: Petri dishes, 90 mm in diameter, with air volume of 80 mL, contained 10-12 mL of growth medium comprising potato dextrose agar (PDA) (Acumedia, Lansing, Michigan, USA) amended with tetracycline at 12 μg/mL. Each compound was placed on a disconnected cover from an Eppendorf tube that was located in the middle of the Petri dish and a hyphae-containing plug of each test fungus was added to the culture plate. In exemplary procedures, the tested compounds trans-2-heptenal, trans-2-octenal were tested in comparison with octanal, trans-2-octen-1-ol, methyl trans-2-octenoate, trans-3-octen-2-one and 3-pentenenitrile. In addition, cyclic ketones as 2-cyclopenten-1-one, 2-cyclohexen-1-one and α-tetralone were also examined. Then, the culture plate was sealed with parafilm and incubated at room-temperature for 2 days, after which the growth of the test fungi in those dishes was compared with those in the test compound-free control dishes. At the end of the assay, the viability of each test fungus was evaluated by transferring inoculum plugs to fresh PDA plates and observing the growth that developed within the next 2 days. The test fungi used in this study included but were not limited to Alternaria alternata, Botrytis cinerea, Sclerotinia rolfsii, Penicillium digitatum, Fusarium oxysporum f. sp. radicis-cucumerinum and Rhizoctonia solani.

A further series concerns Meloidogyne javanica J2s. The experiment in a line: Greenhouse nematocidal experiment with susceptible tomato plants in inoculated loam. The class given is in vivo. As to conditions: tomato harvested after 8 weeks. The method, then:
The activity of trans-2-octenal against nematodes was examined in a greenhouse experiment using stage 2 juveniles of the rot-knot nematode Meloidogyne javanica. […] After 2 days, the inoculated soil was treated with 30 ppm of trans-2-octenal and incubated for additional 5 days. Then, susceptible tomato plants were planted, and allowed to grow in a growing chamber for 8 weeks. At the end of the experiment, the plants, along with their root systems, were harvested from their pots and evaluated for incidence of root galling. In addition, M. javanica eggs were extracted from each root and counted, and the number of eggs per gram root was calculated. As shown in FIGS. 14A-14D, trans-2-octenal reduced the galling index and the number of eggs per gram root. […] The activity of 2-cyclohexen-1-one against nematodes was examined in a greenhouse experiment using stage 2 juveniles of the rot-knot nematode Meloidogyne javanica. The experiment was performed as described for trans-2-octenal. […] After 2 days, the inoculated soil was treated with 15 or 31 ppm of 2-cyclohexen-1-one and incubated for additional 5 days. Then, susceptible tomato plants were planted, and allowed to grow in a growing chamber for 8 weeks. At the end of the experiment, the plants, along with their root systems, were harvested from their pots and evaluated for incidence of root galling. In addition, M. javanica eggs were extracted from each root and counted, and the number of eggs per gram root was calculated.

Series [2] relates to tomato seedlings strain Ikram. The experiment in a line: Phytotoxic effect on tomato seedlings in pots of pretreated loam soil. To be noted: 9 days. The format is in vivo. The method, then:
The phytotoxic effect of 2-cyclohexen-1-one in pots was examined on tomato seedlings strain Ikram. Pots (9-10 repetitions) were filled with 500 g of loam soil pretreated with 2-cyclohexen-1-one at final concentration of 0, 50, and 60 ppm. Then, tomato seedling was planted in each pot and allowed to grow for 9 days. The phytotoxic effect was evaluated by counting the number of live seedling and measuring their heights.

A further series concerns peanut seeds. As to the kind of experiment: Phytotoxic effect on peanut seeds in pots of loam soil. The format is in vivo. To be noted: 16 days; for Number of germinated seeds: 9 seeds sown. The text has this:
The phytotoxic effect of 2-cyclohexen-1-one was also examined on peanut seeds. The concentrations tested were: 0, 10, 20, and 40 ppm, 3 pots for each concentration. After mixing the loam soil with 2-cyclohexne-1-one, three peanut seeds were sown in each pot and let to grow for 16 days.

Series [3] relates to lettuce seedling strain Raviv. To be noted: in vivo, 3 days.
Procedure: (§1) An experiment in a larger scale was performed in loam soil in which the seedling were planted directly in the treated plot. The soil was treated with 0, 25, 50, 100, 200, 400, 800, and 1,600 ppm of emulsion of trans-2-octenal. The compound was applied using the irrigation system. A day later, tomato seedling strains Ikram and Abigail and lettuce seedling strain Raviv (10 seedlings each) were planted into the treated soil of each concentration. Eleven days later, the number of viable seedlings was counted.
The test system of a further series is tomato strain Ikram. To be noted: in vivo, 3 days.
A further series relates to tomato strain Kilates. As to conditions: in vivo, 3 days.

Each structure is given as a SMILES string.

Procedure for tomato strain Ikram: as §1
Procedure for tomato strain Kilates: The soil was treated with 0, 400 and 800 ppm of emulsion of 2-cyclohexene-1-one. The compound was applied using the irrigation system. A day later, tomato seedling strains Ikram, and Kilates and lettuce seedling strain Raviv (10 seedlings each) were planted into the treated soil of each concentration. Three (3) days later, the number of seedlings was counted.

For `O=C1C=CCCC1` [2-cyclohexen-1-one], the MFC (in the series with S. rolfsii; in series [1]; in the series with R. solani) was more than 25 µg/mL in each case. The “fungicidal activity in words” value in the series on test fungi was “fungicidal activity, to some extent”. For the same compound, the “concentration sufficient to reduce the galling index and the number of eggs per gram root” value with Meloidogyne javanica J2s amounted to 15 ppm. Further, the “% Viability” value in series [2] (50 ppm) is 100%; in series [2] (60 ppm), 67%; with peanut seeds (10 ppm), 89%; with peanut seeds (20 ppm), 100%; in the series on peanut seeds (40 ppm), 89%. Moreover, the results for the “Seedling height (Mean ± SD)” value in [2] (50 ppm) and in series [2] (60 ppm) were 21 ± 3 cm and 16 ± 2 cm, respectively. Moreover, the “concentration at which phytotoxic effect was obtained” value in series [2] (of 0, 50 and 60 ppm tested) was 60 ppm. In addition, the “Number of germinated seeds” value was 8 in the series on peanut seeds (10 ppm), 9 with peanut seeds (20 ppm) and 8 in the series on peanut seeds (40 ppm). Besides, the “concentration at which phytotoxic effect was displayed” value in series [3] is 800 ppm. For the same compound, the “concentration at which phytotoxic effect occurred” value in the series with tomato strain Ikram and in the series with tomato strain Kilates was 400 ppm in each case.
